Test results reported in patent publication US11731964B2, “Benzamide antibacterial agents” (Purdue Research Foundation, priority 2018, dated 2023).
In brackets after ≈: the same amount, converted by molar mass.

Assays:
MRSA USA300 = assay: Time-kill analysis; assay type: cell-based, Staphylococcus aureus
Procedure: The time-kill analysis was performed as previously described^29. […] Aliquots (100 μL) were collected from each treatment after 0, 2, 4, 8, 12, and 24 hours of incubation at 37° C. and subsequently serially diluted in phosphate-buffered saline (PBS). Bacteria were then transferred to TSA plates and incubated at 37° C. for 18-20 hours before viable CFU/mL was determined.

[1] = tested on: human colorectal (Caco-2) cells; assay: Toxicity profile, MTS viability assay; assay type: cell-based; settings: 24 hours, tested 2 to 256 μg/mL
Procedure: (§1) Compound F6 was assayed (at concentrations ranging from 2 μg/mL to 256 μg/mL) against murine macrophage (J774) and human colorectal (Caco-2) epithelial cell lines to determine the potential toxic effect to mammalian cells in vitro. Caco-2 cells were cultured in Dulbecco's Modified Eagle Medium (DMEM) supplemented with 20% fetal bovine serum (FBS), non-essential amino acids (1×), and penicillin-streptomycin at 37° C. with CO2 (5%). J774 cells were cultured in DMEM supplemented with 10% FBS. Upon reaching 85-90% confluency, cells were transferred to all wells of a 96-well tissue-culture treated plate. The cells were incubated in serum-free medium with the compounds (in triplicate) at 37° C. with CO2 (5%) for 24 hours. Cells exposed to equivalent concentrations of DMSO served as the negative control. The assay reagent MTS 3-(4,5-dimethylthiazol-2-yl)-5-(3-carboxymethoxyphenyl)-2-(4-sulfophenyl)-2H-tetrazolium) (Promega, Madison, Wis., USA) was subsequently added and the plate was incubated for four hours. Absorbance readings (at OD490) were taken using a kinetic microplate reader (Molecular Devices, Sunnyvale, Calif., USA). The quantity of viable cells after treatment with each compound was expressed as a percentage of the viability of DMSO-treated control cells (average of triplicate wells±standard deviation). The toxicity data were analyzed via a two-way ANOVA, with post hoc Sidak's multiple comparisons test (P<0.05), utilizing GraphPad Prism 6.0 (GraphPad Software, La Jolla, Calif., USA).

[2] = tested on: murine macrophage (J774) cells; assay: Toxicity profile, MTS viability assay; assay type: cell-based
Procedure: as §1

MRSA USA400 (NRS123) = assay type: cell-based, Staphylococcus aureus
Excerpt: Resistance was classified as a greater than four-fold increase in the initial MIC, as reported elsewhere^30 (Farrell D J, Robbins M, Rhys-Williams W, Love W G. Investigation of the potential for mutational resistance to XF-73, retapamulin, mupirocin, fusidic acid, daptomycin, and vancomycin in methicillin-resistant Staphylococcus aureus isolates during a 55-passage study. Antimicrob Agents Chemother. 2011; 55(3):1177-81).

MRSA NRS123 (USA400) = assay: MIC and MBC; assay type: cell-based; settings: Staphylococcus aureus, MRSA NRS123 (USA400)
Procedure: (§2) Bacteria were cultured in cation-adjusted Mueller Hinton Broth (for strains in Tables 1 and 4) or Brain Heart Infusion broth (for Enterococcus faecium) or Tryptic Soy Broth (all other bacteria) in a 96-well plate at 37° C. for at least 20 hours. The MIC was classified as the lowest concentration where no visual growth of bacteria was observed. The minimum bactericidal concentration (MBC) was tested by spotting 4 μL from wells with no growth onto Tryptic Soy Agar (TSA) plates. Plates were incubated at 37° C. for at least 18 hours before recording the MBC.

MRSA NRS387 (USA800) = assay: MIC and MBC; assay type: cell-based; settings: Staphylococcus aureus, MRSA NRS387 (USA800)
Procedure: as §2

MRSA NRS384 (USA300) = assay: MIC and MBC; assay type: cell-based; settings: Staphylococcus aureus, MRSA NRS384 (USA300)
Procedure: as §2

MRSA NRS386 (USA700) = assay: MIC and MBC; assay type: cell-based; settings: Staphylococcus aureus, MRSA NRS386 (USA700)
Procedure: as §2

MRSA NRS385 (USA500) = assay: MIC and MBC; assay type: cell-based; settings: Staphylococcus aureus, MRSA NRS385 (USA500)
Procedure: as §2

E. faecium ATCC = assay: MIC and MBC; assay type: cell-based; settings: Enterococcus faecium, E. faecium ATCC
Procedure: as §2

[3] = tested on: VRE (E. faecalis) ATCC 51575; assay: MIC, broth microdilution; assay type: cell-based; settings: VRE (E. faecalis) ATCC 51575; read-out: MIC
Procedure, shortened: (§3)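 Visual read-out: the minimum inhibitory concentration is the lowest concentration lacking bacterial growth following incubation of ≥20 h at 37° C. Media varied by organism (CA-MHB, TSB, or BHI for E. faecium). Bactericidal concentration came from subculturing clear wells onto Tryptic Soy Agar for ≥18 h.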

S. aureus ATCC 25923 = assay: MIC, broth microdilution; assay type: cell-based; settings: Staphylococcus aureus, ATCC25923; S. aureus ATCC 25923; read-out: MIC
Procedure, shortened: as §3

[4] = tested on: L. monocytogenes ATCC 19115; assay: MIC, broth microdilution; assay type: cell-based; settings: Listeria monocytogenes, ATCC19115; L. monocytogenes ATCC 19115; read-out: MIC
Procedure, shortened: as §3

E. faecalis ATCC 29212 = assay: MIC, broth microdilution; assay type: cell-based; settings: Enterococcus faecalis, ATCC29212; E. faecalis ATCC 29212; read-out: MIC
Procedure, shortened: as §3

MRSA ATCC 33592 = assay: MIC, broth microdilution; assay type: cell-based; settings: Staphylococcus aureus; MRSA ATCC 33592; read-out: MIC
Procedure, shortened: as §3

S. aureus = assay: Screening of compounds for growth inhibition of S. aureus at 16 μg/mL (OD600); assay type: cell-based; settings: compound at 16 μg/mL, 24 hours, compared to DMSO control
Procedure: Library compounds and analogs of F6 were dissolved in DMSO at 10 mg/mL. S. aureus was cultured in Mueller Hinton Broth to early exponential phase at which point culture aliquots were incubated with compounds at 16 μg/mL or DMSO in duplicates. The culture was continued at 37° C. for 24 hours. Aliquots (100 μL) of the cultures were dispensed into clear 96 well microtiter plates and OD600 was recorded. Percent normalized OD600 was obtained by using the equation [formula] wherein for a given compound, X is the OD600 of culture with the compound, Xo is that of media only and XT is the OD600 of the DMSO control.

With `CC1CC(C)CN(S(=O)(=O)c2ccc(C(=O)Nc3nnc(-c4cccs4)o3)cc2)C1` (centres unmarked) [Compound F6] the “reduction in MRSA USA300 (time-kill)” value (MRSA USA300; 3×MIC, after a 24-hour incubation period) was 2.42 log10, the “in vitro effect against MRSA USA300” value (MRSA USA300; time-kill analysis and MBC) was “bacteriostatic” and the “concentration up to which non-toxic” value [1] was “up to 128 μg/mL”. The “concentration up to which non-toxic” value ([2]; J774 cells, 24 hours, tested 2 to 256 μg/mL) was “up to 128 μg/mL”, the “non-toxic concentration, fold higher than the MIC of F6 against MRSA” value ([2]; mouse and human, 24 h) was 63 fold and the “increase in MIC after the tenth passage” value (MRSA USA400 (NRS123); MRSA USA400) was “one-fold increase”. The “increase in MIC by the 14th passage from the original MIC” value (MRSA USA400 (NRS123); MRSA USA400) was “no additional increase in MIC”, the “change in MIC over nine passages” value (MRSA USA400 (NRS123); MRSA USA400, passages 1-9) was “remained unchanged” and the MBC (MRSA NRS123 (USA400); read-out: MBC) was over 128 µg/mL. It also gave an MIC (MRSA NRS123 (USA400); read-out: MIC) of 2 µg/mL (≈ 4.48 µM), an MBC (MRSA NRS387 (USA800); read-out: MBC) of over 128 µg/mL and an MIC (MRSA NRS387 (USA800); read-out: MIC) of 2 µg/mL (≈ 4.48 µM). The MBC (MRSA NRS384 (USA300); read-out: MBC) was over 128 µg/mL, the MIC (MRSA NRS384 (USA300); read-out: MIC) was 2 µg/mL (≈ 4.48 µM) and the MBC (MRSA NRS386 (USA700); read-out: MBC) was over 128 µg/mL. The MIC (MRSA NRS386 (USA700); read-out: MIC) was 2 µg/mL (≈ 4.48 µM), the MBC (MRSA NRS385 (USA500); read-out: MBC) was over 128 µg/mL and the MIC (MRSA NRS385 (USA500); read-out: MIC) was 2 µg/mL (≈ 4.48 µM). It also gave an MBC (E. faecium ATCC; read-out: MBC) of 128 µg/mL (≈ 287 µM), an MIC (E. faecium ATCC; read-out: MIC) of 2 µg/mL (≈ 4.48 µM) and an MIC [3] of 4 µg/mL (≈ 8.96 µM). The MIC (S. aureus ATCC 25923) was 2 µg/mL (≈ 4.48 µM), the MIC [4] was 4 µg/mL (≈ 8.96 µM) and the MIC (E. faecalis ATCC 29212) was 4 µg/mL (≈ 8.96 µM). The MIC (MRSA ATCC 33592) was 2 µg/mL (≈ 4.48 µM) and the “inhibition of growth of S. aureus” value (S. aureus) was “significantly inhibited the growth”.
